“Also recorded” adds a separate entry of the source.
What was measured:
P. aeruginosa persisters = assay: Persister cell eradication: carbon sources plus tobramycin, survival by c.f.u. counting; type: cell-based, Pseudomonas aeruginosa; settings: for potentiation of tobramycin killing of persisters by carbon source (efficiency of tested metabolites): tobramycin 40 mg/l, carbon sources normalized to 60 mM carbon, M9 minimal media, ciprofloxacin-selected persisters; for potentiation of antibiotic efficacy / sensitization to aminoglycoside antibiotics: P. aeruginosa cells in various reduced metabolic states, in conjunction with aminoglycosides
[1] = system: P. aeruginosa stationary phase cells; assay: Stationary phase cells eradication: carbon sources plus tobramycin, survival by c.f.u. counting; type: cell-based, Pseudomonas aeruginosa
Description: Cells from frozen stock were plated overnight at 37° C., following which a single colony forming unit (CFU) was grown in Luria-Bertani (LB) broth at 300 r.p.m. and 80% humidity to an optical density at 600 nm (OD600) of 0.3. Cells were then diluted 1:1,000 in 25 ml LB and grown for 16 h at 37° C., 300 r.p.m. and 80% humidity in 250 ml flasks. Cells were then washed (Spin 5000 rpm (Thermofisher centrifuge) for 15 mins. Samples were then washed with 20 ml of 1× filtered PBS (again spin 5000 rpm for 15 mins) and re-suspended in M9 minimal media. Carbon sources and antibiotics (tobramycin 40 mg/l) were added and samples were incubated at 37° C., 300 r.p.m. and 80% humidity At specified time points, 10-μl aliquots of cells were removed and washed with PBS, serially diluted and spot-plated onto LB agar plates to determine colony-forming units per ml (c.f.u. ml−1). The concentration of carbon sources were normalized to deliver 60 mM carbon (for example 10 mM glucose, 15 mM fumarate, 20 mM pyruvate etc.). Survivors were enumerated by plating 10 ul aliquots with serial dilutions taken from 1 ml spun down and PBS washed (remaining AB). […] Survival was determined by dividing the c.f.u. ml−1 of a sample at each time point by the initial c.f.u. ml−1 for that sample.

[2] = i.v. administration; cited from earlier work

| SMILES | potentiation of tobramycin killing of persisters by carbon source (efficiency of tested metabolites) (P. aeruginosa persisters) | potentiation of antibiotic efficacy / sensitization to aminoglycoside antibiotics (P. aeruginosa persisters) | further results |
| --- | --- | --- | --- |
| O=C(CO)[C@@H](O)[C@H](O)[C@H](O)CO [Fructose, fructose] | not efficient | – | – |
| OC[C@@H](O)[C@@H](O)[C@H](O)[C@H](O)CO [Mannitol, mannitol] | not efficient | – | – |
| O=C(O)/C=C/C(=O)O [fumarate] | most potent | very strong results | killing with incremental doses of fumarate for a given dose of tobramycin ([1]; FIG. 2, tobramycin 40 mg/L): increased killing; killing of P. aeruginosa in stationary phase by tobramycin ([1]; FIGS. 2A-2B): enables killing |
| O=C(O)[C@H](O)[C@@H](O)[C@H](O)[C@H](O)CO [gluconate] | variable levels of efficiency | – | – |
| CCC(=O)O [propionate] | recapitulated this to some effect | sensitize the bacterium to aminoglycoside antibiotics | – |
| O=C(O)CCC(=O)O [succinate] | most potent | very strong results | – |
| NC[C@H]1O[C@H](O[C@H]2[C@H](O)[C@@H](O[C@H]3O[C@H](CO)[C@@H](O)[C@H](N)[C@H]3O)[C@H](N)C[C@@H]2N)[C@H](N)C[C@@H]1O [tobramycin, reference compound] | – | – | killing with incremental doses of tobramycin for a given fumarate ([1]; FIG. 2, administered with fumarate): increased killing; also recorded: higher killing; typical peak serum concentration [2]: 40 mg/L |

Reference: patent publication US11382883B2, “Intermediate metabolism products to potentiate aminoglycoside antibiotics in bacterial infections” (TRUSTEES OF BOSTON UNIVERSITY, priority 2013, dated 2022)
